What was measured:
[1] = Superoxide radical scavenging assay (NBT photo reduction method); details: pH 7.8, 30 °C, 10 min, 560 nm, mean ± S.D., triplicate
Experimental: Superoxide scavenging activity of the compounds and reference were tested in a non-enzymatic superoxide radical (O2^−•) generation assay using a modified spectrophotometrical nitro blue tetrazolium (NBT) photo reduction method. The total volume of the assay mixtures containing riboflavin (2 μM), methionine (13 mM), NBT ([…]), EDTA (0.1 mM), and the test samples (50 mM phosphate buffer, pH = 7.8) was 1 mL. After illuminating with a fluorescent lamp at 30 °C for 10 min., the absorbance of the samples (Asample) was measured at 560 nm. Assay mixture without the compound was used as control (control absorbance, Acontrol). All experiments were carried out in triplicate and results were expressed as the mean ± standard deviation (S.D.). Free O2^−• radical scavenging effect was calculated using Equation (1).

[2] = DPPH radical scavenging assay; details: 0.1 mM methanolic DPPH, 30 min in the dark, 517 nm; mean ± S.D., triplicate
Experimental: Some 1,2,3-triazole compounds are known to act either as inhibitors of free radical production or as radical scavengers. Therefore, the potential antioxidant property of the new 1,2,3-trizole compounds was evaluated by determining their DPPH and SOD radical scavenging ability. DPPH is a stable free radical that accepts an electron or hydrogen radical to become a stable species. Due to its odd electron, DPPH gives a strong absorption band at 517 nm. Antioxidants are suitable reducing agents and neutralize the free radicals by pairing the DPPH odd electron with a hydrogen atom, and the DPPH solution turns yellow, observed as the decrease in absorbance at 517 nm.
The compounds were tested for in vitro antioxidant activities by the 2,2-diphenyl-1-picrylhydrazyl (DPPH) free radical scavenging assay method. The total volume of the assay mixtures containing methanolic DPPH solution (0.1 mM) and different concentrations of samples was 1 mL. After incubation in the dark at room temperature for 30 min., absorbance of the samples (Asample) was measured at 517 nm. Assay mixture without compound was used as control (control absorbance, Acontrol). All experiments were carried out in triplicate and results were expressed as the mean ±standard deviation (S.D.). Butylatedhydroxyanisole (BHA) were used as the reference compound. Free radical scavenging effect was calculated using Equation (1).

[3] = target: T1, Electric eel acetyl-cholinesterase enzyme (AchE, Type-VI-S; EC 3.1.1.7) (Electrophorus electricus, UniProt O42275); assay: biochemical; details: mean ± S.D. of three independent experiments; Tris-HCl pH 8.00, 412 nm
T1 construct: purchased Sigma-Aldrich Type-VI-S
T1 sequence (O42275 24-633): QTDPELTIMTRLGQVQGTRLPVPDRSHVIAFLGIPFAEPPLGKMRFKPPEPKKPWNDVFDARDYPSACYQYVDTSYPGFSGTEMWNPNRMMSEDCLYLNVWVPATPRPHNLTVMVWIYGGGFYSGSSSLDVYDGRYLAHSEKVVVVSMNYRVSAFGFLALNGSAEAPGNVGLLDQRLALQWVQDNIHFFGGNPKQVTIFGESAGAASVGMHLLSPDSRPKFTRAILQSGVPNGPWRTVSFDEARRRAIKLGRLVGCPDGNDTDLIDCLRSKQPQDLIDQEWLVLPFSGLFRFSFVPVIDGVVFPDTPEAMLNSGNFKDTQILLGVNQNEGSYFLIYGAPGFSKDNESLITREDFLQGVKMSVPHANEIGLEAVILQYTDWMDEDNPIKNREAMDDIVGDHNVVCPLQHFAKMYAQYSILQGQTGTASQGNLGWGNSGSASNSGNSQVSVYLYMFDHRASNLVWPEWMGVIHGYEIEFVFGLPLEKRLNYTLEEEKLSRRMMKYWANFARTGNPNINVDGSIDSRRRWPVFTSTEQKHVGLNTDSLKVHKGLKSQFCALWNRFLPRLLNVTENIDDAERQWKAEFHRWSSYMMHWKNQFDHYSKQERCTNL
Experimental: Firstly, all of the compounds stock solution in DMF (1 × 10^−3 M) were prepared and then five different concentrations were prepared from stock solution in buffer (Tris-HCI pH 8.00) for experiments. Briefly 50 µL of 50 mM Tris-HCl buffer (pH 8.00), 125 µL of 3 mM DTNB (in buffer), 25 µL of 0.2 U/mL AChE and 25 µL of sample dissolved in buffer and incubated for 15 min. at 25 °C. Fifteen minutes later, 25 µL of 15 mM acetyl thiocholine iodide were added and incubated 5 min. at room temperature. The reaction was initiated by the addition of acetylcholine iodide. The hydrolysis of this substrate was monitored by the formation of the yellow 5-thio-2-nitrobenzoate anion as a result of the reaction DTNB with thiocholine, catalized by enzyme at a wave length of 412 nm using a 96-well microplate reader (Multiskan Go UV-spectrophotometer, Thermo Fisher Scientific Oy Ratastie 2, Vantaa, Finland).
Inhibition of AChE was calculated by the comparison of reaction rates of the samples relative to the blank sample (DMF in phosphate buffer pH = 8) using the Equation (1) where Acontrol is the activity of enzyme without test sample and Asample is the activity of enzyme with test sample: (1) Scavenging effects (%)=[(Acontrol−Asample)/Acontrol]×100
The experiments were carried out in triplicate and IC50 values were examined.

SMILES | SOD IC50 [1] | DPPH IC50 [2] | IC50 [3] [µM]
COc1cc(C(C)=O)ccc1OCc1cn(CCCCCCCCCCn2cc(COc3ccc(C(C)=O)cc3OC)nn2)nn1 [Compound 3f] | 98.35 (±0.06) µg/mL | 207.57 (±0.09) µg/mL | 78.6
COc1cc(C=O)ccc1OCc1cn(CCCCCCn2cc(COc3ccc(C=O)cc3OC)nn2)nn1 [Compound 5d] | 157.14 (±0.07) µg/mL | 191.39 (±0.08) µg/mL | 70.3
COc1cc(C=O)ccc1OCc1cn(CCCn2cc(COc3ccc(C=O)cc3OC)nn2)nn1 [Compound 5a] | 126.2 (±0.07) µg/mL | 150.03 (±0.08) µg/mL | 74.7
CC(=O)c1ccc(OCc2cn(CCCCCCCCn3cc(COc4ccc(C(C)=O)cc4)nn3)nn2)cc1 [Compound 2e, 1,1′-((((Octane-1,8-diylbis(1H-1,2,3-triazole-1,4-diyl))bis(methylene))bis(oxy))bis(4,1-phenylene))bis(ethan-1-one)] | 131.43 (±0.06) µg/mL | 222.16 (±0.07) µg/mL | 66.4
COc1cc(C(C)=O)ccc1OCc1cn(CCCCn2cc(COc3ccc(C(C)=O)cc3OC)nn2)nn1 [Compound 3b, 1-(4-((1-(4-(4-((4-Acetyl-2-methoxyphenoxy)methyl)-1H-1,2,3-triazol-1-yl)butyl)-1H-1,2,3-triazol-4-yl)-methoxy)-2-methoxyphenyl)ethan-1-one] | 51.37 (±0.07) µg/mL | 113.63 (±0.05) µg/mL | 57
O=Cc1ccc(OCc2cn(CCCn3cc(COc4ccc(C=O)cc4)nn3)nn2)cc1 [Compound 4a, 4,4′-(((Propane-1,3-diylbis(1H-1,2,3-triazole-1,4-diyl))bis(methylene))bis(oxy))dibenzaldehyde] | 55.67 (±0.08) µg/mL | 192.02 (±0.12) µg/mL | 62.8
O=Cc1ccc(OCc2cn(CCCCCCn3cc(COc4ccc(C=O)cc4)nn3)nn2)cc1 [Compound 4d, 4,4′-(((Hexane-1,6-diylbis(1H-1,2,3-triazole-1,4-diyl))bis(methylene))bis(oxy))dibenzaldehyde] | 82.77 (±0.11) µg/mL | 204.31 (±0.11) µg/mL | 58.5
CC(=O)c1ccc(OCc2cn(CCCCCCCCCCn3cc(COc4ccc(C(C)=O)cc4)nn3)nn2)cc1 [Compound 2f, 1,1′-((((Decane-1,10-diylbis(1H-1,2,3-triazole-1,4-diyl))bis(methylene))bis(oxy))bis(4,1-phenylene))bis-(ethan-1-one)] | 88.15 (±0.06) µg/mL | 167.51 (±0.05) µg/mL | 50.8
O=Cc1ccc(OCc2cn(CCCCCCCCCCn3cc(COc4ccc(C=O)cc4)nn3)nn2)cc1 [Compound 4f, 4,4′-(((Decane-1,10-diylbis(1H-1,2,3-triazole-1,4-diyl))bis(methylene))bis(oxy))dibenzaldehyde] | 93.47 (±0.09) µg/mL | 210.33 (±0.08) µg/mL | 62.5
COc1cc(C=O)ccc1OCc1cn(CCCCCn2cc(COc3ccc(C=O)cc3OC)nn2)nn1 [Compound 5c] | 145.68 (±0.11) µg/mL | 192.46 (±0.11) µg/mL | 69.4
COc1ccc(O)c(C(C)(C)C)c1 [BHA, Butylatedhydroxyanisole, reference compound] |  | 98.56 (±0.08) µg/mL | 
COc1cc(C=O)ccc1OCc1cn(CCCCn2cc(COc3ccc(C=O)cc3OC)nn2)nn1 [Compound 5b] | 109.17 (±0.10) µg/mL | 154.51 (±0.07) µg/mL | 61.8
CC(=O)c1ccc(OCc2cn(CCCn3cc(COc4ccc(C(C)=O)cc4)nn3)nn2)cc1 [Compound 2a, 1,1′-((((Propane-1,3-diylbis(1H-1,2,3-triazole-1,4-diyl))bis(methylene))bis(oxy))bis(4,1-phenylene))bis(ethan-1-one)] | 45.12 (±0.04) µg/mL | 155.49 (±0.08) µg/mL | 64.7

— PMC6274262, “Synthesis of Novel Symmetrical 1,4-Disubstituted 1,2,3-Bistriazole Derivatives via ‘Click Chemistry’ and Their Biological Evaluation” (Molecules, 2016)
